# Patent US20070271620A1, “Animal model for type II diabetes mellitus and Syndrome X and methods and uses thereof” (priority 2005, published 2007)
# Values joined by “and” are separate entries in the source; they are usually repeats but may differ in a detail not shown here. Equal entries are not always repeated.
# How the values were obtained:
# [1] = test system: cross-bred pigs (Yorkshire×Landrace); assay: Fasting and postprandial plasma lipid profiles and postprandial insulin in STZ diabetic pigs; type: in vivo, pig
# Protocol: Fasting blood samples were taken before the start of hyperinsulinemic clamp experiments and postprandial blood samples were taken two to three hours after a morning meal in the week following a clamp study.
# Blood samples for determination of triglycerides and non-esterified fatty acids (NEFA) were collected in tubes containing EDTA (0.47 mol/L EDTA, 10 mL Venoject, Terumo, Leuven, Belgium) and immediately chilled at 0° C. on ice, and centrifuged at 4° C. for ten minutes at 3000 rpm. Plasma was stored, at −20° C. in four aliquots of 0.5 mL for further analyses.
# Concentrations of triglycerides, cholesterol and NEFA were measured using commercially available test kits (Boehringer Mannheim, Mannheim Germany; Human, Wiesbaden, Germany; and Wako Chemicals, Neuss, Germany, respectively).
# [2] = test system: cross-bred pigs (Yorkshire×Landrace); assay: Induction of diabetes by streptozotocin infusion in pigs: fasting plasma glucose, food intake, urinary glucose and ketones; type: in vivo, pig
# Protocol: Experimental protocols describing the management, surgical procedures, and animal care were reviewed and approved by the ASG-Lelystad Animal Care and Use Committee (Lelystad, NL). Thirty-six cross-bred pigs (Yorkshire×Landrace) of approximately 30 kg BW at surgery were used in this study. Two weeks before surgery, the pigs were housed in metabolism cages (1.15×1.35 m) and adapted to the fight/dark cycle and the feeding regimen. Lights were on and off at 05:00 and 22:00 hours, respectively. Ambient room temperature was 20° C.
# STZ (Pharmacia & Upjohn Company, Kalamazoo, Mich., USA) was dissolved in saline (1 g/10 mL) and administrated to pigs via the jugular vein by a continuous infusion over 30 minutes. STZ treatment (110, 130 or 150 mg/kg) was initiated four to five hours after the morning meal. During the first three days after STZ treatment, food was offered ad libitum in order to avoid hypoglycemia (Gäbel et al., 1985; Grussner et al., 1993). Over the following four days, the food was offered still ad libitum but now from 06:00 to 7:00 and from 15:00 to 16:00 hours to evaluate the food intake capacity in relation to 24-hour urinary glucose excretion of diabetic pigs. This was done first, to be sure that diabetic pigs consume their meals at the iso-energetic level of 1045 kJ ME/kg BW^0.75 per day and second, to underline the importance of iso-energetic feeding when 24-hour urinary glucose excretion is used as one of the parameters to quantify the efficacy of metformin in diabetic pigs. On day 8 post-STZ treatment, pigs were fed on a restricted and iso-energetic level of 1045 kJ ME/kg BW^0.75 per day throughout the study.
# Plasma insulin concentration was measured using a Delfia assay (test kit No. B080-1101 by Perkin Elmer Life Sciences, trust by Wallac Oy, Turku, Finland). This specific pig insulin assay was validated using pig insulin standards. Plasma and urine glucose concentrations were analyzed enzymically on an autoanalyzer of Radiometer (ABL and AML, Copenhagen, Denmark). Urine was collected in buckets containing 0.5 grams Halamid-d (sodium-p-toluenesulfonchloramide, Akzo Nobel Chemicals, Amersfoort, NL) to prevent microbial breakdown of glucose. Urine volume was registered over a given interval in order to calculate the rate of urinary glucose excretion. Urine samples (0.5 mL) were stored at −20° C. for later glucose analyses. Ketones (acetoacetic acid) were determined in fresh urine by a reagent strip test (Ketostix, Bayer Diagnostics, Mijdrecht, NL).
# [3] = pigs, STZ 130 mg/kg, two to three hours after morning meal
compound,measurement,setting,value
"CN(N=O)C(=O)N[C@H]1C(O)O[C@H](CO)[C@@H](O)[C@@H]1O (mixture of isomers) [STZ, streptozotocin]",Postprandial plasma insulin,"[1]; STZ diabetic pigs, two to three hours after feeding, detection limit",~1 mU/L
same,Fasting cholesterol and NEFA concentrations compared to normal pigs,"[1]; pigs, STZ 130 mg/kg",did not differ
same,Fasting plasma NEFA,"[1]; pigs, STZ 130 mg/kg",0.9 ± 0.3 mmol/L
same,Fasting plasma cholesterol,"[1]; pigs, STZ 130 mg/kg",2.1 ± 0.2 mmol/L
same,Fasting plasma triglyceride elevation compared to normal pigs,"[1]; pigs, STZ 130 mg/kg",five-fold
same,Fasting plasma triglycerides,"[1]; pigs, STZ 130 mg/kg",1.0 mmol/L and 1.0 ± 0.3 mmol/L
same,Postprandial plasma NEFA elevation compared to normal pigs,"[1]; pigs, STZ 130 mg/kg",seven-fold
same,Postprandial plasma cholesterol elevation compared to normal pigs,"[1]; pigs, STZ 130 mg/kg",1.3 fold
same,Postprandial plasma triglycerides elevation compared to normal pigs,"[1]; pigs, STZ 130 mg/kg",four-fold
same,Postprandial plasma NEFA,[1]; [3],1.5 ± 0.5 mmol/L
same,Postprandial plasma cholesterol,[1]; [3],2.3 ± 0.2 mmol/L
same,Postprandial plasma trigylcerides,[1]; [3],1.2 mmol/L and 1.2 ± 0.3 mmol/L
same,Pigs with overnight fasting plasma glucose <10 mmol/L (no fasting hyperglycemia),"[2]; STZ 110 mg/kg BW, one week post STZ",two of six
same,Diabetic state,[2]; STZ 130 mg/kg,"non-ketotic, moderately dyslipidemic, developed severe insulin resistance for glucose metabolism, maintained growth without insulin therapy"
same,Pigs with fasting hyperglycemia (>10 mmol/L),[2]; STZ 130 mg/kg,20 of 23
same,Pigs with overnight fasting plasma glucose <10 mmol/L,"[2]; STZ 130 mg/kg BW, one week post STZ",three of 23
same,Overnight fasting plasma glucose,"[2]; STZ 150 mg/kg BW, all six pigs, one week post STZ",> 20 mmol/L
same,Diabetic state,"[2]; STZ 150 mg/kg, all pigs","clear hyperglycemic, hypoinsulinemic, and ketotic diabetic state"
same,Fasting urinary glucose excretion (factual),"[2]; STZ diabetic pigs fasted overnight, urine collected for eight hours",2.3 ± 0.2 mg/kg/min and 2.3 mg/kg/min
same,Ketones in urine,"[2]; STZ dose of 110 and 130 mg/kg, trace = 0.5 mmol/L",no or trace
same,Predicted fasting urinary glucose excretion,[2]; from intercept of linear regression and average body weight,2.6 mg/kg/min
same,Fasting 24-hour urinary glucose excretion (intercept of regression),[2]; linear regression y=0.33x+141,141 g per day
